Test results: patent publication US4038222A, “Untriakontapeptide with opiate activity” (Hoffman-La Roche Inc., priority 1976, dated 1977)
Entries after “also recorded” stand apart in the source; their conditions may differ. No end group written: not given here.

Assays:
[1] = pentapeptide isolated from pig brains; cited from earlier work
rabbit fat cells = test: Lipolytic activity in rabbit fat cells (procedure of Li et al.), glycerol production; format: cell-based; conditions: for Response: glycerol production: triplicate, mean ± standard error
From the text: The lypolytic activity of natural beta-endorphin was compared to the activity of ovine beta-lipotropin hormone in rabbit fat cells using the procedure of Li et al., Arch. Biochem. Biophys. 169, 669 (1975).
^a Micromole of glycerol production per gram of cells per hour.
Determinations in triplicate. Values in mean ± standard error.

[2] = system: opiate receptor, guinea pig brain membranes; test: Opiate agonist activity by receptor binding assay (method of Simon et al.), inhibition of stereospecific binding; conditions: for Response: percentage of inhibition of stereospecific binding: mean ± standard error from 4 determinations
Experimental: The opiate agonist activity of natural beta-endophine was determined by the method of Simon et al., Proc. Nat. Acad. Sci. 70, 1947 (1973) using guinea pig brain membranes. The results obtained are summarized below in Table 4:
^a Percentage of inhibition of stereospecific binding.
Mean ± standard error from 4 determinations.

H-Tyr-Gly-Gly-Phe-Met-OH- (H-YGGFM-OH) [pentapeptide isolated from pig brains by Hughes et al]
Opiate agonist activity (in words) [1]: exhibits opiate agonist activity

YGGFMTSEKSQTPLVTLFKNAIIKNAHKKGQ [beta-endorphin]
Lipolytic activity in comparison to the complete hormone (in words) (rabbit fat cells; compared with beta-lipotropin hormone): very low
Response: glycerol production (rabbit fat cells; dose 1.1 (unit not given)): 0.66 ± 0.28 Micromole of glycerol producti
Response: glycerol production (rabbit fat cells; dose 10.0 (unit not given)): 1.42 ± 0.37 Micromole of glycerol producti
Opiate agonist activity (in words) [2]: potent opiate agonist activity; also recorded: significant opiate agonist activity
Relative potency to normorphine ([2]; 95% confidence limit of 300-392, λ = 0.044): 342%
Response: percentage of inhibition of stereospecific binding ([2]; dose 1.0 x 10^-7 M): 60 ± 0.7%
Response: percentage of inhibition of stereospecific binding ([2]; dose 10.0 x 10^-7 M): 83 ± 0.2%
Potency relative to normorphine on a molar basis ([2]; molar basis): 3.42 times

Oc1ccc2c3c1O[C@H]1[C@@H](O)C=C[C@H]4[C@@H](C2)NCC[C@@]341 [Normorphine, reference compound]
Response: percentage of inhibition of stereospecific binding ([2]; dose 0.7 x 10^-7 M): 28 ± 0.8%
Response: percentage of inhibition of stereospecific binding ([2]; dose 7.0 x 10^-7 M): 70 ± 0.9%
